Reference: patent publication US10342758B2, “Cationic lipid” (Kyowa Hakko Kirin Co., Ltd., priority 2012, dated 2019)

Test: Average particle diameter of preparation (Zetasizer Nano ZS)
Type: physicochemical
Conditions: preparation with f7 siRNA
Method: The average particle diameter of each preparation (composition) was measured using a particle diameter measurement device (Zetasizer Nano ZS, manufactured by Malvern, hereafter the same).
The average particle diameter of each preparation (composition) was measured using a particle diameter measurement device.
Each sample was weighed and suspended in an aqueous solution containing hydrochloric acid and ethanol so that the ratio of Compound A-1/PEG-DMPE Na (manufactured by NOF Corporation) was 57.3/5.52 mmol/L, and then, the resulting mixture was repeatedly subjected to stirring using a vortex stirring mixer and heating, whereby a uniform suspension was obtained. This suspension was passed through a 0.2-μm polycarbonate membrane filter and thereafter passed through a 0.05-μm polycarbonate membrane filter at room temperature, whereby a dispersion liquid of particles (liposome) of Compound A-1/PEG-DMPE Na was obtained. The average particle diameter of the obtained liposome was measured using a particle diameter measuring apparatus to confirm that the average particle diameter was within the range from 30 nm to 100 nm. In the obtained dispersion liquid of liposome, the f7 siRNA solution was mixed at a ratio of the dispersion liquid of liposome to the fl siRNA solution of 3:1, and then, distilled water that was three times the amount was added thereto and mixed therewith, whereby a dispersion liquid of Compound A-1/PEG-DMPE Na/f7 siRNA complex was prepared.
The average particle diameter of the preparation (composition) was measured using a particle diameter measurement device.

[1] = compound/PEG-DMPE Na/DSPC/cholesterol=7.030/0.755/2.038/4.892 mmol/L, Example 54
[2] = liposome/siRNA complex encapsulated by lipid membrane, Examples 52, 53 / Comparative Example 3
[3] = compound/PEG-DMPE Na/DSPC/cholesterol, Examples 50, 51 / Comparative Example 2

Compound	Particle diameter of Preparation obtained [1] [nm]	Particle diameter of Preparation obtained [2] [nm]	Particle diameter of Preparation obtained [3] [nm]
CCCCC/C=C\C/C=C\CCCCCCCCN(CCCCCCCC/C=C\C/C=C\CCCCC)C(=O)OCCCN1CCCCC1 [Compound A-7, 3-(Piperidin-1-yl)propyl di((9Z,12Z)-octadeca-9,12-dienyl)carbamate]	123.3	94.6	
CCCCC/C=C\C/C=C\CCCCCCCCOCCN(CCCCCCCC/C=C\C/C=C\CCCCC)C(=O)OCC1CCCN(C)C1 (centres unmarked) [Compound A-32, (1-Methylpiperidin-3-yl)methyl ((9Z,12Z)-octadeca-9,12-dienyl)(2-((Z,12Z)-octadeca-9,12-dienyloxy)ethyl)carbamate]		101.4	124.6
CCCCC/C=C\C/C=C\CCCCCCCCN(CCCCCCCC/C=C\C/C=C\CCCCC)C(=O)OCCC1CCCN1C (centres unmarked) [Compound A-6, 2-(1-Methylpyrrolidin-2-yl)ethyl di((9Z,12Z)-octadeca-9,12-dienyl)carbamate]		93.6	
CCCCC/C=C\C/C=C\CCCCCCCCOCCN(CCCCCCCC/C=C\C/C=C\CCCCC)C(=O)OCCCN1CCCCCC1 [Compound A-31, 3-(Azepan-1-yl)propyl ((9Z,12Z)-octadeca-9,12-dienyl) (2-((9Z,12Z)-octadeca-9,12-dienyloxy)ethyl)carbamate]		102.2	139.1
CCCCC/C=C\C/C=C\CCCCCCCCOCC(CN(C)C(=O)OCCCN(C)C)OCCCCCCCC/C=C\C/C=C\CCCCC (centres unmarked) [Compound XI-9, 3-(Dimethylamino)propyl 2,3-bis((9Z,12Z)-octadeca-9,12-dienyloxy)propyl(methyl)carbamate, reference compound]		116.2	
CCCCC/C=C\C/C=C\CCCCCCCCN(CCOCCCCCCCC/C=C\CCCCCCCC)C(=O)OCCCN(C)C [Compound A-35, 3-(Dimethylamino)propyl (2-((Z)-octadec-9-enyloxy)ethyl)((9Z,12Z)-octadeca-9,12-dienyl)carbamate]		115.4	137.8
CCCCC/C=C\C/C=C\CCCCCCCCCCN(CCCCCCCCCC/C=C\C/C=C\CCCCC)C(=O)OCCC1CCCN1C (centres unmarked) [Compound A-19, 2-(1-Methylpyrrolidin-2-yl)ethyl di((11Z,14Z)-icosa-11,14-dienyl)carbamate]		91.4	140.0
CCCCC/C=C\C/C=C\CCCCCCCCO[C@@H]1CN(CCCO)C[C@H]1OCCCCCCCC/C=C\C/C=C\CCCCC [Compound XI-8, 3-((3R,4R)-3,4-Bis((9Z,12Z)-octadeca-9,12-dienyloxy)pyrrolidin-1-yl)propan-1-ol, reference compound]			128.0
CCCCCCCC/C=C\CCCCCCCCN(CCCCCCCC/C=C\CCCCCCCC)C(=O)OCCC1CCCN1C (centres unmarked) [Compound A-17, 2-(1-Methylpyrrolidin-2-yl)ethyl di((Z)-octadec-9-enyl)carbamate]		101.4	129.1
CCCCC/C=C\C/C=C\CCCCCCCCN(CCCCCCCC/C=C\C/C=C\CCCCC)C(=O)OCC1CCCN(C)C1 (centres unmarked) [Compound A-15]		98.4	124.0
CCCCC/C=C\C/C=C\CCCCCCCCN(CCCCCCCC/C=C\C/C=C\CCCCC)CC(O)CO (centres unmarked) [Compound XI-7, 3-(Di((9Z,12Z)-octadeca-9,12-dienyl)amino)propane-1,2-diol, reference compound]			142.8
CCCCC/C=C\C/C=C\CCCCCCCCOCCN(CCOCCCCCCCC/C=C\C/C=C\CCCCC)C(=O)OCCCN(C)C [Compound XI-5, 3-(Dimethylamino)propyl bis(2-((9Z,12Z)-octadeca-9,12-dienyloxy)ethyl)carbamate, reference compound]			114.1
CCCCC/C=C\C/C=C\CCCCCCCCN(CCCCCCCC/C=C\C/C=C\CCCCC)C(=O)OCCN(C)C [Compound A-5, 2-(Dimethylamino)ethyl di((9Z,12Z)-octadeca-9,12-dienyl)carbamate]		93.4	139.2
CCCCC/C=C\C/C=C\CCCCCCCCN(CCOCCCCCCCC/C=C\CCCCCC)C(=O)OCCCN(C)C [Compound A-36, 3-(Dimethylamino)propyl (2-((Z)-hexadec-9-enyloxy)ethyl)((9Z,12Z)-octadeca-9,12-dienyl)carbamate]		127.2	126.5
CCCCC/C=C\C/C=C\CCCCCCCCN(CCCCO)CCCCCCCC/C=C\C/C=C\CCCCC [Compound C-5, 4-(Di((9Z,12Z)-octadeca-9,12-dienyl)amino)butan-1-ol]		96.4	134.9
CCCCC/C=C\C/C=C\CCCCCCCCCCN(CCCO)CCCCCCCCCC/C=C\C/C=C\CCCCC [Compound C-3, 3-(Di((11Z,14Z)-icosa-11,14-dienyl)amino)propan-1-ol]		94.1	138.4
CCCCC/C=C\C/C=C\CCCCCCCCN(CCO)CCCCCCCC/C=C\C/C=C\CCCCC [Compound C-4, 2-(Di((9Z,12Z)-octadeca-9,12-dienyl)amino)ethanol]		98.8	137.3
CCCCC/C=C\C/C=C\CCCCCCCCN(CCCCCCCC/C=C\C/C=C\CCCCC)C(=O)OCCCN1CCCCCCC1 [Compound A-28]		111.3	132.0
CCCCC/C=C\C/C=C\CCCCCCCCOCCN(CCCCCCCC/C=C\C/C=C\CCCCC)C(=O)OCCCN1CCCCC1 [Compound A-29, 3-(Piperidin-1-yl)propyl ((9Z,12Z)-octadeca-9,12-dienyl)(2-((9Z,12Z)-octadeca-9,12-dienyloxy)ethyl)carbamate]		103.4	130.6
CCCCC/C=C\C/C=C\CCCCCCCCN(CCCCCCCC/C=C\C/C=C\CCCCC)C(=O)OCC1CCCCN1C (centres unmarked) [Compound A-16, (1-Methylpiperidin-2-yl)methyl di((9Z,12Z)-octadeca-9,12-dien-1-yl)carbamate]		105.5	133.4
CCCCC/C=C\C/C=C\CCCCCCCCN(CCCCCCCCCC)C(=O)OCCCN(C)C [Compound A-10, 3-(Dimethylamino)propyl decyl((9Z,12Z)-octadeca-9,12-dienyl)carbamate]	156.2	123.1	148.7
